Columns and labels:
[1] = In vivo pharmacokinetic analyses in rat, oral dosing; settings: serum, PO dosing 5 mg/kg
Method: One rat is dosed orally (5 mg/kg—dissolved in DMSO/H2O/propylenglycol [1:5:4]) and blood samples are taken from the sublingual venous plexus at 30 min, 1 h, 2 h, 4 h and 6 h. Blood samples are taken in BD Vacutainer SST serum separation tubes, serum is isolated by centrifugation, transferred to micronics tubes and subsequently analysed.
Mass spectrometer (API5000 series) parameters are optimised to analyse for the specific compounds and test injections are performed to confirm the validity of the established generic chromatography method. The generic method is based on fast gradient (2.5 min) analysis on C18 column with mobile phases consisting methanol, ammonium acetate, formic acid and water.
Standards are prepared in rat serum to cover the analytical range 0.1 to 300 ng/ml. Standards, blank serum and study samples are applied to 96 deepwell plate and proteins are precipitated by addition of acetonitrile containing internal standard. Samples are analysed on LC-MS/MS usually overnight. Integration and quantification is performed on ration between analyte and internal standard using Analyst software version 1.5. Pharmacokinetic parameters are calculated using a standardised Excel spreadsheet.
In vivo pharmacokinetic profile in rat of compound 101 disclosed in WO 2008/104175 and compound 105 and 106 disclosed in examples 5 and 6, respectively: […]

[2] = molecular target: Human recombinant PDE4 (Genbank accession no NM_006203) (Homo sapiens (Human), UniProt Q08499); assay: PDE4 Assay (SPA, cAMP cleavage); type: biochemical; settings: human recombinant PDE4, 1 hour incubation, cAMP 1x10-5 M
Method: At the end of the incubation, the cleavage of the substrate was evaluated by the binding of the AMP product to SPA beads, which generate chemoluminescence when bound to the radioactive tracer. The AMP product inhibited the binding of the radioactive tracer to the beads, and the luminescent signal was competed.
The results were calculated as the molar concentrations resulting in 50% inhibition of the substrate cleavage compared to controls samples, and are expressed as IC50 (M).

Sequence of Human recombinant PDE4 (Genbank accession no NM_006203) (Q08499 other isoform, or with tags, fused parts or gaps): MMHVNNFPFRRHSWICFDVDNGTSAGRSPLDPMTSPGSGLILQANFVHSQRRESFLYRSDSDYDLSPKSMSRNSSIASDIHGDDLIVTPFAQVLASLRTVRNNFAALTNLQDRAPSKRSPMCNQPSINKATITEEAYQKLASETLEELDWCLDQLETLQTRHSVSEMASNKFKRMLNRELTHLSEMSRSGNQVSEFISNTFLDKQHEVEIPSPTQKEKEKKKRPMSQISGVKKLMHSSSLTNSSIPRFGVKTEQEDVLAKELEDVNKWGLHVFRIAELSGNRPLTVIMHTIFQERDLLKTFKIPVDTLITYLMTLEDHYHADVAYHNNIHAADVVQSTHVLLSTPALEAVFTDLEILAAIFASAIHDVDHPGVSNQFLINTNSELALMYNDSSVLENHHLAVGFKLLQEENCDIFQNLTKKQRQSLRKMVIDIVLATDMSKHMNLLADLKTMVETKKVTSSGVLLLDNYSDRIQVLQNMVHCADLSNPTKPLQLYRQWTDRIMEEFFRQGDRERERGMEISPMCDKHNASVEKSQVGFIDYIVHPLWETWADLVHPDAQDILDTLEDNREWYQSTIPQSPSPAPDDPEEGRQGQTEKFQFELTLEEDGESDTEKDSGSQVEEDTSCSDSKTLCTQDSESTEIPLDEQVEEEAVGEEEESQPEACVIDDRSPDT

| Structure (SMILES) | bioavailability [1] [%] | IC50 [2] [nM] |
| --- | --- | --- |
| O=C(Cc1c(Cl)c[n+]([O-])cc1Cl)c1ccc(OC(F)F)c2c1OC1(CCOCC1)O2 [compound 106, 2-(3,5-Dichloro-1-oxido-pyridine-4-yl)-1-(7-difluoromethoxy-2′,3′,5′,6′-tetrahydro-spiro[1,3-benzodioxole-2,4′-(4H)-pyran]-4-yl)ethanone] | 22 |  |
| O=C(Nc1c(Cl)c[n+](O)cc1Cl)c1ccc(OC(F)F)c2c1OC1(CCS(=O)(=O)CC1)O2 [compound 111, N-(3,5-dichloro-1-oxo-4-pyridyl)-7-(difluoromethoxy)-1′,1′-dioxo-spiro[1,3-benzodioxole-2,4′-thiane]-4-carboxamide] |  | 106 |

Source: patent US9637499B2, “Benzodioxole or benzodioxepine heterocyclic compounds as phosphodiesterase inhibitors” (LEO PHARMA A/S, priority 2010, dated 2017)
